Key:
human CYP11B1 = target: T1, human CYP11B1 (Homo sapiens, UniProt P15538); experiment: Inhibition of hCYP11B1 in transfected V79 cells; assay type: cell-based; conditions: hamster V79 cells expressing human CYP11B1; substrate 11-deoxycortisol 200 nM
T1 construct: expressed in transfected cells
T1 sequence (P15538 25-503): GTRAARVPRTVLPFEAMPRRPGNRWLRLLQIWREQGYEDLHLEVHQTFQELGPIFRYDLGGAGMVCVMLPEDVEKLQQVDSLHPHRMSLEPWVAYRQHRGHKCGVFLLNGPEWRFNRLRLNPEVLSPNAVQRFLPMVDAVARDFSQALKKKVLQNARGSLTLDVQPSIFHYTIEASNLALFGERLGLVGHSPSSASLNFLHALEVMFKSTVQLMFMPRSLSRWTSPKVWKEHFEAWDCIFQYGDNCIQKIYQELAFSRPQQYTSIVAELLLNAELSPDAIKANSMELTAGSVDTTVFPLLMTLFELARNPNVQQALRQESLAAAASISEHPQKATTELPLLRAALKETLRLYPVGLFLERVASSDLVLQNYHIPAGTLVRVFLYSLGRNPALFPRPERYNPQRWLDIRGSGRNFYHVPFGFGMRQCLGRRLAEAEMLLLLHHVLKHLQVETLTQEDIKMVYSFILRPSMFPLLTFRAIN
How it was run: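 Reactions started with 200 nM 11-deoxycortisol, ran for 30 min and were stopped with ethyl acetate, after a 2 h compound preincubation. The host was stably transfected V79 hamster cells carrying human CYP11B1 plus rat P450 reductase. Percent inhibition, from LC-MS/MS or HPLC (260 nm) quantitation of substrate and product, gave the IC50.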

human CYP11B2 = target: T2, human CYP11B2 (Homo sapiens, UniProt P19099); experiment: Inhibition of hCYP11B2 in transfected V79 cells; assay type: cell-based; conditions: hamster V79 cells expressing human CYP11B2; substrate 11-deoxycorticosterone 200 nM
T2 construct: expressed in transfected cells
T2 sequence (P19099 25-503): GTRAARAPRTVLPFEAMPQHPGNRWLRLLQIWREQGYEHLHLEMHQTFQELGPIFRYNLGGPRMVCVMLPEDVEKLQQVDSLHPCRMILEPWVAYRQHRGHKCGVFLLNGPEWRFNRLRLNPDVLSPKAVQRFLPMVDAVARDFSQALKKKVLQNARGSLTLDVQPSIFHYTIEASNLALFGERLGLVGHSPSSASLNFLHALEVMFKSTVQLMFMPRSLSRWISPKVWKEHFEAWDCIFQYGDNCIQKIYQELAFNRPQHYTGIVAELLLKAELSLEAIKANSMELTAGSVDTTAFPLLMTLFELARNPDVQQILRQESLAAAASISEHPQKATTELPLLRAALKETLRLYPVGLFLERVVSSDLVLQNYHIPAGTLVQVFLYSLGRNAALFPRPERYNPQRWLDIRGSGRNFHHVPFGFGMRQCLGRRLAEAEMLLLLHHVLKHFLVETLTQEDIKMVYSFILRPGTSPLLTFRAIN
How it was run: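 The substrate (200 nM, 30 min) was added after a 2 hour compound pre-incubation in lentivirus-transduced V79 cells stably expressing human CYP11B2 plus rat NADPH-P450 reductase.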

IC50 (human CYP11B1) [nM]	IC50 (human CYP11B2) [nM]	SMILES
134	2.4	N#Cc1ccc(-c2cncc3c2CCN3C(=O)Cc2ccc(F)cc2)cc1 [C69, 4-(1-(2-(4-Fluorophenyl)acetyl)-2,3-dihydro-1H-pyrrolo[2,3-c]pyridin-4-yl)benzonitrile]
32	0.8	N#Cc1ccc(-c2cncc3c2SCCN3S(=O)(=O)C2CN(S(=O)(=O)c3cccc(C#N)c3)C2)cc1 [S77, 3-((3-((8-(4-Cyanophenyl)-2,3-dihydro-4H-pyrido[4,3-b][1,4]thiazin-4-yl)sulfonyl)azetidin-1-yl)sulfonyl)benzonitrile]
3.7	0.51	N#Cc1ccc(-c2cncc3c2OCCN3C(=O)C2CN(S(=O)(=O)c3cccc(F)c3)C2)cc1 [O61, 4-(4-(1-((3-Fluorophenyl)sulfonyl)azetidine-3-carbonyl)-3,4-dihydro-2H-pyrido[4,3-b][1,4]oxazin-8-yl)benzonitrile]
21	0.8	N#Cc1ccc(-c2cncc3c2SCCN3S(=O)(=O)C2CN(Cc3cccc(F)c3)C2)cc1 [S83, 4-(4-((1-(3-Fluorobenzyl)azetidin-3-yl)sulfonyl)-3,4-dihydro-2H-pyrido[4,3-b][1,4]thiazin-8-yl)benzonitrile]
> 5000	451	N#Cc1ccc(-c2cncc3c2SCCN3Cc2cccc(F)c2)cc1 [S1, 4-(4-(3-Fluorobenzyl)-3,4-dihydro-2H-pyrido[4,3-b][1,4]thiazin-8-yl)benzonitrile]
476	22	O=C(C1CN(Cc2cccc(F)c2)C1)N1CCc2c(-c3cc4cc(Cl)ccc4[nH]3)cncc21 [C80, (4-(5-Chloro-1H-indol-2-yl)-2,3-dihydro-1H-pyrrolo[2,3-c]pyridin-1-yl)(1-(3-fluorobenzyl)azetidin-3-yl)methanone]
233	18	N#Cc1ccc(-c2cncc3c2CCN3C(=O)c2ccccc2C(F)(F)F)cc1 [C32, 4-(1-(2-(Trifluoromethyl)benzoyl)-2,3-dihydro-1H-pyrrolo[2,3-c]pyridin-4-yl)benzonitrile]
2950	46	COc1ccc(C(=O)N2CCc3c(-c4cc5cc(C#N)ccc5o4)cncc32)cc1 [C79, 2-(1-(4-Methoxybenzoyl)-2,3-dihydro-1H-pyrrolo[2,3-c]pyridin-4-yl)benzofuran-5-carbo nitrile]
84	6	COc1ccc(S(=O)(=O)N2CCSc3c(-c4cccs4)cncc32)cc1 [S37, 4-((4-Methoxyphenyl)sulfonyl)-8-(thiophen-2-yl)-3,4-dihydro-2H-pyrido[4,3-b][1,4]thiazine]
0.35	0.12	N#Cc1ccc(-c2cncc3c2CCN3S(=O)(=O)c2ccc([N+](=O)[O-])cc2)cc1 [C2, 4-(1-((4-Nitrophenyl)sulfonyl)-2,3-dihydro-1H-pyrrolo[2,3-c]pyridin-4-yl)benzonitrile]
3.8	1.2	N#Cc1ccc(-c2cncc3c2ccn3S(=O)(=O)c2ccc(Cl)nc2)cc1 [E18, 4-(1-((6-Chloropyridin-3-yl)sulfonyl)-1H-pyrrolo[2,3-c]pyridin-4-yl)benzonitrile]
28	2	N#Cc1ccc(-c2cncc3c2CCN3C(=O)Cc2cccc(Cl)c2)cc1 [C71, 4-(1-(2-(3-Chlorophenyl)acetyl)-2,3-dihydro-1H-pyrrolo[2,3-c]pyridin-4-yl)benzonitrile]
114	2.1	N#Cc1ccc(-c2cncc3c2OCCN3C(=O)C2CCN(S(=O)(=O)c3cccc(F)c3)CC2)cc1 [O55, 4-(4-(1-((3-Fluorophenyl)sulfonyl)piperidine-4-carbonyl)-3,4-dihydro-2H-pyrido[4,3-b][1, 4]oxazin-8-yl)benzonitrile]
895	45	O=C(c1ccccc1F)N1CCc2c(-c3ccc(Cl)cc3)cncc21 [C54, (4-(4-Chlorophenyl)-2,3-dihydro-1H-pyrrolo[2,3-c]pyridin-1-yl)(2-fluorophenyl)methanone]
2740	131	O=C(c1ccccc1F)N1CCc2c(-c3cc4ccccc4[nH]3)cncc21 [C59, (4-(1H-indol-2-yl)-2,3-dihydro-1H-pyrrolo[2,3-c]pyridin-1-yl)(2-fluorophenyl)methanone]
2.8	0.18	Cc1ccc(S(=O)(=O)N2CCSc3c(-c4ccc(C#N)cc4)cncc32)cc1 [S12, 4-(4-Tosyl-3,4-dihydro-2H-pyrido[4,3-b][1,4]thiazin-8-yl)benzonitrile]
3960	57	O=C(C1CN(Cc2cccc(F)c2)C1)N1CCOc2c(N3CCn4ccnc4C3)cncc21 [O137, (8-(5,6-Dihydroimidazo[1,2-a]pyrazin-7 (8H)-yl)-2,3-dihydro-4H-pyrido[4,3-b][1,4]oxazin-4-yl)(1-(3-fluorobenzyl)azetidin-3-yl)methanone]
178	3.3	N#Cc1ccc(-c2cncc3c2OCCN3C(=O)C2CN(S(=O)(=O)c3ccc([N+](=O)[O-])cc3)C2)cc1 [O62, 4-(4-(1-((4-Nitrophenyl)sulfonyl)azetidine-3-carbonyl)-3,4-dihydro-2H-pyrido[4,3-b][1,4]oxazin-8-yl)benzonitrile]
124	11	N#Cc1ccc(-c2cncc3c2CCN3C(=O)Cc2ccc(Br)cc2)cc1 [C73, 4-(1-(2-(4-Bromophenyl)acetyl)-2,3-dihydro-1H-pyrrolo[2,3-c]pyridin-4-yl)benzonitrile]
7.8	3.5	N#Cc1ccc(-c2cncc3c2CCN3S(=O)(=O)c2cccs2)cc1 [C17, 4-(1-(Thiophen-2-ylsulfonyl)-2,3-dihydro-1H-pyrrolo[2,3-c]pyridin-4-yl)benzonitrile]
117	2.3	N#Cc1ccc(-c2cncc3c2CCN3C(=O)c2cccc([N+](=O)[O-])c2)cc1 [C27, 4-(1-(3-Nitrobenzoyl)-2,3-dihydro-1H-pyrrolo[2,3-c]pyridin-4-yl)benzonitrile]
2	0.1	N#Cc1ccc(-c2cncc3c2SCCN3S(=O)(=O)c2cccc([N+](=O)[O-])c2)cc1 [S18, 4-(4-((3-Nitrophenyl)sulfonyl)-3,4-dihydro-2H-pyrido[4,3-b][1,4]thiazin-8-yl)benzonitrile]
657	6.7	N#Cc1ccc(S(=O)(=O)N2CCSc3c(-c4cc5ccccc5o4)cncc32)cc1 [S40, 4-((8-(Benzofuran-2-yl)-2,3-dihydro-4H-pyrido[4,3-b][1,4]thiazin-4-yl)sulfonyl)benzonitrile]
353	40	N#Cc1ccc(-c2cncc3c2CCN3C(=O)c2ccccc2)cc1 [C41, 4-(1-Benzoyl-2,3-dihydro-1H-pyrrolo[2,3-c]pyridin-4-yl)benzonitrile]
274	5.4	N#Cc1ccc(-c2cncc3c2CCN3C(=O)c2cccs2)cc1 [C46, 4-(1-(Thiophene-2-carbonyl)-2,3-dihydro-1H-pyrrolo[2,3-c]pyridin-4-yl)benzonitrile]
971	25	N#Cc1ccc(-c2cncc3c2CCN3C(=O)c2ccc(CBr)cc2)cc1 [C49, 4-(1-(4-(Bromomethyl)benzoyl)-2,3-dihydro-1H-pyrrolo[2,3-c]pyridin-4-yl)benzonitrile]
0.56	0.13	N#Cc1ccc(-c2cncc3c2OCCN3S(=O)(=O)c2ccc(F)cc2)cc1 [O2, 4-(4-((4-Fluorophenyl)sulfonyl)-3,4-dihydro-2H-pyrido[4,3-b][1,4]oxazin-8-yl)benzonitrile]
955	5	O=S(=O)(C1CN(C2COC2)C1)N1CCSc2c(-c3cc4cc(Cl)ccc4o3)cncc21 [S103, 8-(5-Chlorobenzofuran-2-yl)-4-((1-(oxetan-3-yl)azetidin-3-yl)sulfonyl)-3,4-dihydro-2H-pyrido[4,3-b][1,4]thiazine]
376	8	N#Cc1ccc(-c2cncc3c2CCN3C(=O)Cc2ccc(Cl)cc2)cc1 [C77, 4-(1-(2-(4-Chlorophenyl)acetyl)-2,3-dihydro-1H-pyrrolo[2,3-c]pyridin-4-yl)benzonitrile]

Reference: patent publication US20260092074A1, “Annelated Pyridines as Steroidogenesis Inhibitors, Preparation Method and Use Thereof” (Guangzhou Vinnocent Pharmaceutical Limited, priority 2022, published 2026)
